Reference: US8178688B2, “Benzamidine derivatives, process for the preparation thereof and pharmaceutical composition comprising the same” (Dong Wha Pharmaceutical Co., Ltd., priority 2004, dated 2012)
Where two headings read alike, the source gives them in different places.

What was measured:
[1] = tested on: osteoclast differentiation; assay: Inhibitory effects on osteoclast differentiation (co-culture of bone marrow cells with osteoblast, TRAP staining); type: cell-based, mice; conditions: for inhibition at 1 µM: Mus musculus, Osteoclast, 168 h, read-out: % inhibitory activity on osteoclastogenesis
In short: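 Bone marrow cells from 6–8-week male ddY mice co-cultured with neonatal ICR mouse calvarial osteoblasts in α-MEM/FBS with dexamethasone (10^−7M) and vitamin D3 (10^−8M) for 7 days, compound and medium renewed every 2–3 days. TRAP-positive cells with ≥3 nuclei counted; inhibition given as percent of control.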

cells = assay: Cytotoxicity test (MTT); type: cell-based; conditions: 10^−6M, 72 hrs, compared with the control group
Experimental: Cytotoxic effect of benzamidine derivatives was evaluated by the experiment described below.
The test substance was diluted in appropriate solvent at 10^−2M concentration. […] Cells to be used in cytotoxitic test were plated on a 96-well microplate in a dose of 1×10^4 cell/100 μL per well and cultured for 72 hrs. 25 μL of MTT [3-(4,5-dimethyl-2-thiazolyl)-2,5-diphenyl-2H-tetrazolium bromide] dissolved in PBS at 2 mg/mL were added before 4 hrs of the end of culture. After reaction, the plates were centrifuged, medium was decanted and 100 μL of DMSO was added to dissolve formazan. Lastly, the absorbance of developed plates was measured at 540 nm.

[2] = 1 μm, co-culture of bone marrow cells and osteoblast, 7 days, TRAP-positive osteoclasts versus controls
[3] = 1 m, co-culture of bone marrow cells and osteoblast, 7 days, TRAP-positive osteoclasts versus controls
[4] = co-culture of bone marrow cells and osteoblast, 7 days, TRAP-positive osteoclasts versus controls

| Structure (SMILES) | Survival rates of the cells (cells; MC3T3-E1 cells) [%] | Survival rates of the cells (cells; ST2 cells) [%] | inhibition at 1 µM [1, 3] [%] | other results |
| --- | --- | --- | --- | --- |
| N=C(NO)c1ccc(OCCCCCOc2ccc(-c3csc(C4CCCCC4)n3)cc2)cc1 [Example 8, N-hydroxy-4-(5-[4-(2-cyclohexyl-1,3-thiazol-4-yl)phenoxy]pentoxy)-benzamidine] | 76.9 | 46.2 |  | inhibition at 1 µM [1, 2]: 88.3% |
| Cc1sc(C(C)(C)C)nc1-c1ccc(OCCCCCOc2ccc(C(=N)NO)cc2)cc1 [Example 16, N-hydroxy-4-(5-[4-(2-t-butyl-5-methyl-1,3-thiazol-4-yl)phenoxy]pentoxy)-benzamidine] | 39.6 | 30.1 |  | inhibition at 1 µM [1]: 64.3% |
| CCCCc1sc(C(C)C)nc1-c1ccc(OCCCCCOc2ccc(C(=N)NO)cc2)cc1 [Example 32, N-hydroxy-4-(5-[4-(5-butyl-2-isopropyl-1,3-thiazol-4-yl)phenoxy]pentoxy)-benzamidine] | 100.0 | 55.1 |  | inhibition at 1 µM [1, 2]: 59.4% |
| CCCCc1sc(C2CCCCC2)nc1-c1ccc(OCCCCCOc2ccc(C(=N)NO)cc2)cc1 [Example 35, N-hydroxy-4-(5-[4-(5-butyl-2-cyclohexyl-1,3-thiazol-4-yl)phenoxy]pentoxy)-benzamidine] | 73.6 | 56.3 |  | inhibition at 1 µM [1]: 69.8% |
| CCCCc1sc(C(C)(C)C)nc1-c1ccc(OCCCCCOc2ccc(C(=N)NO)cc2)cc1 [Example 37, N-hydroxy-4-(5-[4-(5-butyl-2-t-butyl-1,3-thiazol-4-yl)phenoxy]pentoxy)-benzamidine] | 74.4 | 40.5 |  | inhibition at 1 µM [1]: 52.9% |
| N=C(NO)c1ccc(OCCCCCOc2ccc(-c3nc(-c4ccccc4)sc3Cc3ccccc3)cc2)cc1 [Example 40, N-hydroxy-4-(5-[4-(5-benzyl-2-phenyl-1,3-thiazol-4-yl)phenoxy]pentoxy)-benzamidine] | 100.0 | 53.3 |  | inhibition at 1 µM [1, 2]: 60.1% |
| Cc1nc(-c2ccc(OCCCCCOc3ccc(C(=N)NO)cc3)cc2)c(CC2CCCC2)s1 [Example 45, N-hydroxy-4-(5-[4-(5-cyclopentylmethyl-2-methyl-1,3-thiazol-4-yl)phenoxy]pentoxy)-benzamidine] | 75.9 | 37.0 |  | inhibition at 1 µM [1, 2]: 97.7% |
| CCc1nc(-c2ccc(OCCCCCOc3ccc(C(=N)NO)cc3)cc2)c(CC2CCCC2)s1 [Example 46, N-hydroxy-4-(5-[4-(5-cyclopentylmethyl-2-ethyl-1,3-thiazol-4-yl)phenoxy]pentoxy)-benzamidine] | 100.0 | 48.3 |  | inhibition at 1 µM [1, 2]: 96.9% |
| N=C(NO)c1ccc(OCCCCCOc2ccc(-c3nc(-c4ccccc4)sc3CC3CCCC3)cc2)cc1 [Example 48, N-hydroxy-4-(5-[4-(5-cyclopentylmethyl-2-phenyl-1,3-thiazol-4-yl)phenoxy]pentoxy)-benzamidine] | 100.0 | 51.2 |  | inhibition at 1 µM [1, 2]: 72.1% |
| N=C(NO)c1ccc(OCCCCCOc2ccc(-c3nc(-c4cccnc4)sc3CC3CCCC3)cc2)cc1 [Example 49, N-hydroxy-4-(5-[4-(5-cyclopentylmethyl-2-pyridin-3-yl-1,3-thiazol-4-yl)phenoxy]pentoxy)-benzamidine] | 83.5 | 39.0 |  | inhibition at 1 µM [1, 2]: 77.1% |
| N=C(NO)c1ccc(OCCCCCOc2ccc(-c3nc(C4CCCCC4)sc3CC3CCCC3)cc2)cc1 [Example 50, N-hydroxy-4-(5-[4-(5-cyclopentylmethyl-2-cyclohexyl-1,3-thiazol-4-yl)phenoxy]pentoxy)-benzamidine] | 81.0 | 61.0 |  | inhibition at 1 µM [1]: 79.8% |
| CCCCCc1nc(-c2ccc(OCCCCCOc3ccc(C(=N)NO)cc3)cc2)c(CC2CCCC2)s1 [Example 51, N-hydroxy-4-(5-[4-(5-cyclopentylmethyl-2-pentyl-1,3-thiazol-4-yl)phenoxy]pentoxy)-benzamidine] | 95.5 | 66.5 |  | inhibition at 1 µM [1]: 74.8% |
| N=C(NO)c1ccc(OCCCCCOc2ccc(-c3csc(N)n3)cc2)cc1 [Example 57, N-hydroxy-4-(5-[4-(2-amino-1,3-thiazol-4-yl)phenoxy]pentoxy)-benzamidine] | 52.1 | 19.9 |  | inhibition at 1 µM [1, 2]: 60.4% |
| Cc1nc(-c2ccc(OCCCCCOc3ccc(C(=N)NO)c(F)c3)cc2F)c(C(C)C)s1 [Example 192, N-hydroxy-2-fluoro-4-(5-[3-fluoro-4-(5-isopropyl-2-methyl-1,3-thiazol-4-yl)-phenoxy]-pentoxy)-benzamidine] |  |  | 70.5 |  |
| Cc1nc(-c2ccc(OCCCOc3ccc(C(=N)NO)cc3)cc2)c(C(C)C)s1 [Example 193, N-hydroxy-4-(3-[4-(5-isopropyl-2-methyl-1,3-thiazol-4-yl)phenoxy]propoxy)-benzamidine] |  |  | 54.1 |  |
| Cc1nc(-c2ccc(OCCCCOc3ccc(C(=N)NO)cc3)cc2)c(C(C)C)s1 [Example 194, N-hydroxy-4-(4-[4-(5-isopropyl-2-methyl-1,3-thiazol-4-yl)phenoxy]butoxy)-benzamidine] |  |  | 19.8 |  |
| Cc1nc(-c2ccc(OCCCCCNc3cccc(C(=N)NO)c3)cc2)c(C(C)C)s1 [Example 195, N-hydroxy-3-(5-[4-(5-isopropyl-2-methyl-thiazol-4-yl)-phenoxy]-pentylamino)-benzamidine] |  |  | 42.3 |  |
| CCc1sc(C2CCCCC2)nc1-c1ccc(OCCCCOc2ccc(C(=N)NO)cc2)cc1 [Example 196, N-hydroxy-4-(4-[4-(2-cyclohexyl-5-ethyl-thiazol-4-yl)-phenoxy]-butoxy)-benzamidine] |  |  | 82 |  |
| CCc1sc(N(C)CCO)nc1-c1ccc(OCCCCOc2ccc(C(=N)NO)cc2)cc1 [Example 198, N-hydroxy-4-(4-[4-(5-ethyl-2-[(2-hydroxyethyl)-methyl-amino]-thiazol-4-yl)phenoxy]butoxy)-benzamidine] |  |  | 36.9 |  |
| CCc1sc(N(C)Cc2cccnc2)nc1-c1ccc(OCCCOc2ccc(C(=N)NO)cc2)cc1 [Example 199, N-hydroxy-4-(3-[4-(5-ethyl-2-[methyl-(pyridin-3-yl-methyl)amino]-thiazol-4-yl)phenoxy]propoxy)-benzamidine] |  |  | 82.9 |  |
| CCc1sc(N(C)Cc2cccnc2)nc1-c1ccc(OCCCCOc2ccc(C(=N)NO)cc2)cc1 [Example 200, N-hydroxy-4-(4-[4-(5-ethyl-2-[methyl-(pyridin-3-yl-methyl)amino]-thiazol-4-yl)phenoxy]butoxy)-benzamidine] |  |  | 38.7 |  |
| CC(C)c1nc(-c2ccc(OCc3ccc(COc4ccc(C(=N)NO)cc4)cc3)cc2)c(CC2CCCC2)s1 [Example 201, N-hydroxy-4-(4-[4-(5-cyclopentylmethyl-2-isopropyl-thiazol-4-yl)-phenoxymethyl]-benzyloxy)-benzamidine] |  |  | 85.6 |  |
| CCCCc1sc(C(C)C)nc1-c1ccc(OCc2ccc(COc3ccc(C(=N)NO)cc3)cc2)cc1 [Example 202, N-hydroxy-4-(4-[4-(5-butyl-2-isopropyl-thiazol-4-yl)-phenoxymethyl]-benzyloxy)-benzamidine] |  |  | 85.6 |  |
| N=C(NO)c1ccc(OCc2ccc(COc3ccc(-c4nc(N)sc4CC4CCCC4)cc3)cc2)cc1 [Example 203, N-hydroxy-4-(4-[4-(5-cyclopentylnnethyl-2-amino-thiazol-4-yl)-phenoxymethyl]-benzyloxy)-benzamidine] |  |  |  | % inhibitory activity on osteoclastogenesis [1, 4]: 68.8% |
| Cc1nc(-c2ccc(OCCCCOc3ccc(C(=N)NO)c(F)c3)cc2)c(C(C)C)s1 [Example 207, N-hydroxy-2-fluoro-4-(5-[4-(5-isopropyl-2-methyl-thiazol-4-yl)-phenoxy]-butoxy)-benzamidine] |  |  |  | % inhibitory activity on osteoclastogenesis [1, 4]: 14.4% |
| Cc1nc(-c2ccc(OCc3cccc(COc4ccc(C(=N)NO)cc4)c3)cc2)c(C(C)C)s1 [Example 209, N-hydroxy-4-(3-[4-(5-isopropyl-2-methyl-thiazol-4-yl)-phenoxymethyl]-benzyloxy)-benzamidine] |  |  | 14.3 |  |
| N=C(NO)c1ccc(OCc2ccc(COc3ccc(-c4nc(C5CCCCC5)sc4CC4CCCC4)cc3)cc2)cc1 [Example 210, N-hydroxy-4-(4-[4-(5-cyclopentylmethyl-2-cyclohexyl-thiazol-4-yl)-phenoxymethyl]-benzyloxy)-benzamidine] |  |  | 68.8 |  |
| Cc1nc(-c2ccc(OCCCCCCOc3ccc(C(=N)NO)cc3)cc2)c(C(C)C)s1 [Example 211, N-hydroxy-4-(6-[4-(5-isopropyl-2-methyl-thiazol-4-yl)phenoxy]-hexyloxy)-benzamidine] |  |  | 44 |  |
| CCCOc1cc(OCCCCCOc2ccc(C(=N)NO)cc2)c(CC)cc1-c1csc(C)n1 [Example 213, N-hydroxy-4-(5-[2-ethyl-4-(2-methyl-thiazol-4-yl)-5-propoxy-phenoxy]-pentyloxy)-benzamidine] |  |  | 91.8 |  |
